# Results published in article PMC7696940, “Effects of Rationally Designed Physico-Chemical Variants of the Peptide PuroA on Biocidal Activity towards Bacterial and Mammalian Cells” (International Journal of Molecular Sciences, 2020).
# Where “and” joins values, the source holds several entries; their conditions need not be identical. Identical values can stand only once. Where no end group is shown, it is not given here.
# Columns and labels:
# MRSA M173525 [1] = assay type: cell-based, methicillin-resistant Staphylococcus aureus; conditions: clinical isolate; MHB, 37 °C overnight; mode of three independent experiments
# Experimental: (§1) The activity of peptides was determined against the Gram-positive Staphylococcus aureus (ATCC 25923), and the Gram-negative Escherichia coli (ATCC 25922) and Pseudomonas aeruginosa (ATCC 9027) bacteria. Selected peptides were also tested against two clinical isolates of methicillin-resistant Staphylococcus aureus (MRSA), M173525 and M180920, kindly provided by Dr P. B. Ward (Microbiology Department, Austin and Repatriation Medical Centre, Heidelberg West, Victoria, Australia). The Minimum inhibitory concentration (MIC) of peptides was determined by the microtitre broth dilution method, as described in Phillips et al.. Briefly, bacteria were grown in Mueller-Hinton Broth (MHB) at 37 °C overnight with shaking (200 rpm). The cultures were adjusted to 0.5 McFarland turbidity standard (approximately 1 × 10^8 colony forming units (CFU)/mL), then diluted 1:100 in MHB (1 × 10^6 CFU/mL). A total of 75 μL of these suspensions were mixed with 25 μL of peptide solutions (final concentrations 250 to 0.5 μg/mL) and the microtitre plates incubated overnight at 37 °C. Positive growth controls (inoculum and MHB, with no peptide) and sterility controls (0.01% glacial acetic) were also included. Post-incubations, the absorbance of cultures at 595 nm was measured using a microplate reader (POLARstar Omega, Germany). […] To evaluate salt sensitivity of peptides up to physiological levels (150 mM NaCl), overnight cultures of S. aureus and E. coli adjusted to 0.5 McFarland turbidity standard were diluted 1:100 in MHB containing 0, 50, 100 or 150 mM NaCl, and the MICs of peptides determined as above. All tests were conducted in triplicate. The results are shown as the mode of values obtained.
# MRSA M180920 = assay type: cell-based, methicillin-resistant Staphylococcus aureus; conditions: clinical isolate; MHB, 37 °C overnight; mode of three independent experiments
# Experimental: as §1
# [2] = test system: porcine trypsin and proteinase K; assay: Proteases stability assay; assay type: in vitro ADME, porcine; Tritirachium album; conditions: 1000 µg peptide with 50 µg protease (20:1 w/w), porcine trypsin or proteinase K, PBS pH 7.4, 37 °C, 3 h; read-out activity of supernatant on E. coli and S. aureus; triplicate
# Experimental: The effect of two well-studied proteases, porcine trypsin and proteinase K from Tritirachium album, on the activity of peptides was investigated as per Carmona et al.. Briefly, 1000 µg of a peptide was incubated with 50 µg of a protease (20:1 w/w) at 37 °C for 3 h in phosphate buffered saline PBS (pH 7.4). The enzyme activity was then terminated by heating (70 °C, 5 min) and the samples centrifuged at 12,000× g. The activity of the supernatant on E. coli and S. aureus was tested as above, in triplicate.
# MRSA M173525 [3] = assay: Inhibition of initial cell attachment (CV and MTT assays); assay type: cell-based, methicillin-resistant Staphylococcus aureus; conditions: polystyrene, 24 h, 37 °C, triplicate
# Experimental: (§2) The effects of PuroA and other selected peptides (based on their antibacterial activity) on both the initial cell attachment and 6 h preformed biofilms of MRSA on polystyrene were tested as described by Jadhav et al., at their respective 0.5 × MIC, 1 × MIC, and 2 × MIC concentrations. All tests were conducted in triplicate. For testing the inhibition of initial cell attachment, 100 μL of peptide solutions were added to the microtitre plates, then mixed with 100 μL of M173525 cell suspension (1 × 10^6 CFU/mL, cultured in tryptic soy broth medium (TSB; Oxoid) containing 1% glucose), or 100 μL of sterile MilliQ water as negative control. The plates were incubated at 37 °C for 24 h to allow cell attachment. The biofilm formation was then assessed using CV and MTT assays. […] Peptide solutions (100 μL) were then added, the plates incubated at 37 °C for 1 h and the biofilms assessed.
# (§3) The assay works as an indicator of attached living and non-living biomass. Indirect assessment of cell attachment of MRSA was estimated using the modified CV assay as per Jadhav et al.. After incubations of the plates (for 24 h or 1 h, as above), the culture medium from each well was removed gently and any non-adherent bacteria removed by washing the plates five times with sterile distilled water (dH2O). The plates were air-dried, then oven-dried at 60 °C for 1 h. The biofilm cells in the wells were stained with 100 μL of 1% CV and incubated for 15 min at room temperature. Excess stain was removed by washing the plates three times with sterile dH2O. Ethanol (95%, 125 µL) was transferred to each well to de-stain the cells. The de-staining solution from each well was then transferred to a new plate and its absorbance measured at 595 nm. The percentage inhibition of biomass formation concentration was calculated as: ((OD595 nm control well without peptide − OD5 95 well with peptide)/OD595 nm control well without peptide) × 100. All tests were conducted in triplicate.
# (§4) A modified methylthiazotetrazolium (MTT) (3-[4,5-dimethyl thiazol-2-yl]-2, 5-diphenyltetrazolium bromide) reduction assay was used, wherein the blue product (MTT salt reduced to formazan by dehydrogenases) is taken as a respiratory indicator of live cells. Briefly, MTT (Sigma-Aldrich, Gillingham, UK) was dissolved in PBS to 5 mg/mL. After incubations of plates (for 24 h or 1 h, as above), the culture medium was gently removed and the plates air-dried. PBS (100 μL) and MTT (5 µL, 5 mg/mL) were added to each well and the plates incubated for 3 h at 37 °C. The insoluble purple product was dissolved in 100 µL of dimethyl sulphoxide (DMSO, Sigma-Aldrich, Gillingham, UK) and the absorbance measured at 570 nm. The % inhibition of metabolic activity was calculated as: ((OD570 nm control well without peptide − OD570 nm well with peptide)/OD570 nm control well without peptide) × 100. All tests were conducted in triplicate.
# MRSA M173525 biofilm = assay: Inhibition of preformed 6 h biofilm (CV and MTT assays); assay type: cell-based, methicillin-resistant Staphylococcus aureus; conditions: 37 °C, triplicate
# Experimental: as §2, §3, §4
Molecule,MIC MRSA M173525 (MRSA M173525 [1]) [µg/mL],MIC MRSA M180920 (MRSA M180920) [µg/mL],Protease Stability [2],"Percentage of Inhibition of Initial MRSA Cells Attachment, CV (MRSA M173525 [3]; 0.5 × MIC) [%]","Percentage of Inhibition of Initial MRSA Cells Attachment, MTT (MRSA M173525 [3]; 0.5 × MIC) [%]","Percentage of Inhibition of Initial MRSA Cells Attachment, CV (MRSA M173525 [3]; 1 × MIC) [%]","Percentage of Inhibition of Initial MRSA Cells Attachment, MTT (MRSA M173525 [3]; 1 × MIC) [%]","Percentage of Inhibition of Initial MRSA Cells Attachment, CV (MRSA M173525 [3]; 2 × MIC) [%]","Percentage of Inhibition of Initial MRSA Cells Attachment, MTT (MRSA M173525 [3]; 2 × MIC)","% Inhibition of Preformed 6 h MRSA Biofilm after 1 h Incubation, CV (MRSA M173525 biofilm; 0.5 × MIC) [%]","% Inhibition of Preformed 6 h MRSA Biofilm after 1 h Incubation, MTT (MRSA M173525 biofilm; 0.5 × MIC) [%]","% Inhibition of Preformed 6 h MRSA Biofilm after 1 h Incubation, CV (MRSA M173525 biofilm; 1 × MIC) [%]","% Inhibition of Preformed 6 h MRSA Biofilm after 1 h Incubation, MTT (MRSA M173525 biofilm; 1 × MIC) [%]","% Inhibition of Preformed 6 h MRSA Biofilm after 1 h Incubation, CV (MRSA M173525 biofilm; 2 × MIC) [%]","% Inhibition of Preformed 6 h MRSA Biofilm after 1 h Incubation, MTT (MRSA M173525 biofilm; 2 × MIC) [%]"
CC(C)[C@H](NC(=O)[C@@H]1CCCN1C(=O)[C@@H](N)Cc1ccccc1)C(=O)N[C@H](C(=O)N[C@@H](Cc1c[nH]c2ccccc12)C(=O)N[C@@H](CCCNC(=N)N)C(=O)N[C@@H](Cc1c[nH]c2ccccc12)C(=O)N[C@@H](Cc1c[nH]c2ccccc12)C(=O)N[C@@H](CCCCN)C(=O)N[C@@H](Cc1c[nH]c2ccccc12)C(=O)N[C@@H](Cc1c[nH]c2ccccc12)C(=O)N[C@@H](CCCCN)C(=O)NCC(N)=O)[C@@H](C)O [PuroA],16,16,Unstable,70 ± 5.6,92 ± 1.5,75 ± 4.0,95 ± 1.1,79 ± 4.5,95% and 95 ± 0.5%,68 ± 9.2,90 ± 2.5,75 ± 7.5,92 ± 4.0,77 ± 7.0,95 ± 2.6
RKRWWRWWKWWKR-NH2 [Peptide P1],16,8,Unstable,72 ± 3.1,92 ± 3.0,75 ± 1.9,95 ± 2.3,78 ± 6.1,95 ± 2.5%,70 ± 6.9,93 ± 5.0,74 ± 5.8,95 ± 3.8,78 ± 3.1,95 ± 4.0
WRWWKWW-NH2 [Peptide W7],8,8,Unstable,69 ± 3.6,90 ± 2.9,75 ± 5.0,95 ± 4.0,76 ± 4.8,96 ± 1.5%,67 ± 6.0,88 ± 2.5,75.5 ± 3.0,90 ± 4.7,75 ± 5.5,94 ± 0.5
WWRWWKWW-NH2 [WW],4,4,Unstable,71.5 ± 3.5,90 ± 2.0,73 ± 6.2,95 ± 3.1,79 ± 7.5,96 ± 0.5%,69 ± 7.8,91 ± 3.0,71 ± 4.5,92 ± 3.5,74 ± 2.0,95 ± 1.7
